The results in this text go back to patent US8609836B2, “4-aryl-2-anilino-pyrimidines” (Janssen Pharmaceutica NV, priority 2008, dated 2013).

One assay has as its target AuroraB (h) (Homo sapiens, UniProt Q96GD4). Put plainly: Aurora-B human kinase inhibition, SPA. It is filed as biochemical. As to conditions: read-out: AuroraB pIC50 (converted). An outline of the steps: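 AuroraB (0.5 μg/ml) phosphorylates 3 μM biotin-peptide using 0.5 μM ATP spiked with 33P-ATP in Hepes pH 7.5 with 3 mM MgCl2 and MnCl2, for 60 min at room temperature. EDTA stop solution carries streptavidin scintillant beads, and the captured radiolabel is imaged.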

A further assay addresses GSK3β (h) (Homo sapiens, UniProt P49841). The experiment in a line: GSK-3β human kinase inhibition, SPA. It is filed as biochemical. To be noted: read-out: GSK3b pIC50 (converted). The method, boiled down: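 Radiometric: 33P-labelled peptide captured on streptavidin SPA beads after EDTA stop and imaged on Leadseeker. Reaction ran 1 h at RT, 1 μM cold ATP with 2 nM [γ-33P]ATP, 1 μM biotin-peptide substrate, human GSK3β 1 μg/ml, pH 7.4 Tris buffer.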

A further assay addresses CDK1/CyclinB (h) (Homo sapiens, UniProt P06493). Put plainly: CDK1/CyclinB human kinase inhibition, Invitrogen's FRET assay (Z'lyte). It is filed as biochemical. To be noted: read-out: CDK1 pIC50 (converted). The method, boiled down: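 Read-out is the 460 nm/538 nm emission ratio (390 nm excitation) after a 60 min protease development step. Before that, 10 μM ATP and 2 μM Z'lyte Ser/Thr peptide 12 react 60 min at room temperature with 0.2 μg/ml human CDK1/CyclinB in Hepes pH 7.5 containing MgCl2, EGTA and Brij-35.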

In a further assay the target is CDK4/CyclinD1 (h) (Homo sapiens, UniProt P11802). The experiment in a line: CDK4/CyclinD1 human kinase inhibition, SPA with GST-pRb substrate. It is filed as biochemical. To be noted: read-out: CDK4 pIC50 (converted). As for the experimental part: The in vitro inhibition of a panel of kinases was assessed using either the scintillation proximity assay (SPA) as described by Cook, N. D. et al., Advances in Experimental Medicine and Biology (1991), 36; p. 525-528.
In the SPA technology the activity of the kinase of interest is measured using an appropriate biotinylated substrate that is incubated with the aforementioned kinase protein in the presence of (^33P) radiolabeled ATP. (^33P) Phosphorylation of the substrate is subsequently measured through binding of the phosphorylated substrate to streptavidine coated beads that are based on the scintillant poly(vinyl toluene) (PVT-Beads). The scintillation intensity is detected by imaging on Leadseeker.
All kinases are pre-diluted to a 10× working concentration prior to addition into the assay. The composition of the dilution buffer for each kinase is detailed below.
In a final reaction volume of 30 μl, CDK4/CyclinD1 (h) (2.5 μg/ml) is incubated with 50 mM Hepes pH 7.5, 8 mM NaF, 20 mM MgCl2, 1 mM DTT, 40 μg/ml of substrate GST-pRb, 2 nM [γ-^33P-ATP] (6.0 μCi/ml). After incubation of 60 minutes at room temperature, the reaction is stopped by addition of 40 μL of stop solution containing 8.7 mM EDTA, 0.17% Triton X-100, 25 mg/ml Glutathion SPA Beads (GE-healthcare). The plate is centrifuged and read for Scintillation topcount analyzer.

The target in a further assay is PLK1 T210D (h) (Homo sapiens, UniProt P53350, T210D). The experiment in a line: PLK1 human kinase inhibition, SPA. To be noted: read-out: PLK1 pIC50 (converted). It is filed as biochemical. An outline of the steps:
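Kinase incubated 40 min at room temperature with 0.1 μM ATP (2 nM [γ-33P]ATP tracer), 2 μM biotinylated peptide, pH 8.0 Hepes buffer with 2 mM MnCl2 and 1 mM DTT; enzyme at 0.125 ng/ml. Stopped with EDTA; 33P-peptide bound to streptavidin scintillant beads and imaged.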

The target in the next assay is PLK2 (h) (Homo sapiens, UniProt Q9NYY3). The experiment in a line: PLK2 human kinase inhibition, SPA. It is filed as biochemical. To be noted: read-out: PLK2 pIC50 (converted). The method, boiled down: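 33P incorporation into a biotinylated peptide (2 μM) was captured on streptavidin PVT beads and imaged on Leadseeker. Enzyme at 30 μg/ml, ATP 0.1 μM with 2 nM [γ-33P]ATP, Hepes pH 8.0 with MnCl2 and DTT. Incubation was 20 min at room temperature.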

For the next assay, the target named is PLK3 (h) (Homo sapiens, UniProt Q9H4B4). The experiment in a line: PLK3 human kinase inhibition, SPA. To be noted: read-out: PLK3 pIC50 (converted). It is filed as biochemical. The method, boiled down:
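Radiometric scintillation proximity format at pH 8.0 (Hepes, MnCl2, DTT). The 2 μM biotin-peptide substrate is phosphorylated by PLK3 (h) (30 μg/ml) using 0.1 μM ATP traced with 33P, for 20 min at room temperature. EDTA stop; phosphopeptide captured on streptavidin beads and imaged.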

In another assay the test system is HCT-116. The experiment in a line: Cellular proliferation assay (Alamar blue), HCT-116. It is filed as cell-based. As to conditions: Homo sapiens, 10% FCS, 72 hours with compound, Alamar blue 4 h. An outline of the steps: (§1)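 Alamar blue conversion, quantified fluorimetrically (544 nm/590 nm), gave viable cell number relative to untreated controls; dye time 4 h for HCT-116, 6 h for U87-MG, 24 h for A2780 and MDA-MB-231. Compound exposure lasted 72 h, after 24 h pre-seeding, with 10% FCS, 37 °C, 5% CO2.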
A general note: The colour change of resazurin is a common sign of viable cells or microbes.

A further assay deals with H1299. The experiment in a line: Cellular proliferation assay (Alamar blue), H1299. It is filed as cell-based. As to conditions: Homo sapiens, NCI-H1299; 10% FCS; 72 hours with compound; Alamar blue 4 h. The method, boiled down: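 This proliferation assay on NCI-H1299 cells used an initial 24-hour compound-free incubation after seeding, followed by 72 hours of compound treatment with 10% FCS serum at 37° C. and 5% (v/v) CO2. Viable cells were quantified by a 4 h Alamar blue incubation and fluorescent plate reading at 544 nm/590 nm, and effects were expressed relative to control cells.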

The next assay has as its system U87-MG. The experiment in a line: Cellular proliferation assay (Alamar blue), U87-MG. It is filed as cell-based. As to conditions: Homo sapiens, U-87 MG; 10% FCS; 72 hours with compound; Alamar blue 6 h; read-out: U87-MG (cellular proliferation assay, Table 4) (converted). The method, boiled down:
as §1

The test system of the next assay is A2780. The experiment in a line: Cellular proliferation assay (Alamar blue), A2780. It is filed as cell-based. As to conditions: Homo sapiens, 10% FCS, 72 hours with compound, Alamar blue 24 h, read-out: A2780 (cellular proliferation assay, Table 4) (converted). An outline of the steps:
as §1

The next assay deals with MDA-MB-231. The experiment in a line: Cellular proliferation assay (Alamar blue), MDA-MB-231. It is filed as cell-based. As to conditions: Homo sapiens, 10% FCS, 72 hours with compound, Alamar blue 24 h, read-out: MDA/MB231 (cellular proliferation assay, Table 4) (converted). An outline of the steps:
as §1

The target in another assay is PLK4 (h) (Homo sapiens, UniProt O00444). The experiment in a line: PLK-4 human kinase inhibition, scintillation proximity assay (SPA). As to conditions: read-out: PLK4 pIC50 (converted). It is filed as biochemical.
PLK4 (h), sequence (O00444 whole entry): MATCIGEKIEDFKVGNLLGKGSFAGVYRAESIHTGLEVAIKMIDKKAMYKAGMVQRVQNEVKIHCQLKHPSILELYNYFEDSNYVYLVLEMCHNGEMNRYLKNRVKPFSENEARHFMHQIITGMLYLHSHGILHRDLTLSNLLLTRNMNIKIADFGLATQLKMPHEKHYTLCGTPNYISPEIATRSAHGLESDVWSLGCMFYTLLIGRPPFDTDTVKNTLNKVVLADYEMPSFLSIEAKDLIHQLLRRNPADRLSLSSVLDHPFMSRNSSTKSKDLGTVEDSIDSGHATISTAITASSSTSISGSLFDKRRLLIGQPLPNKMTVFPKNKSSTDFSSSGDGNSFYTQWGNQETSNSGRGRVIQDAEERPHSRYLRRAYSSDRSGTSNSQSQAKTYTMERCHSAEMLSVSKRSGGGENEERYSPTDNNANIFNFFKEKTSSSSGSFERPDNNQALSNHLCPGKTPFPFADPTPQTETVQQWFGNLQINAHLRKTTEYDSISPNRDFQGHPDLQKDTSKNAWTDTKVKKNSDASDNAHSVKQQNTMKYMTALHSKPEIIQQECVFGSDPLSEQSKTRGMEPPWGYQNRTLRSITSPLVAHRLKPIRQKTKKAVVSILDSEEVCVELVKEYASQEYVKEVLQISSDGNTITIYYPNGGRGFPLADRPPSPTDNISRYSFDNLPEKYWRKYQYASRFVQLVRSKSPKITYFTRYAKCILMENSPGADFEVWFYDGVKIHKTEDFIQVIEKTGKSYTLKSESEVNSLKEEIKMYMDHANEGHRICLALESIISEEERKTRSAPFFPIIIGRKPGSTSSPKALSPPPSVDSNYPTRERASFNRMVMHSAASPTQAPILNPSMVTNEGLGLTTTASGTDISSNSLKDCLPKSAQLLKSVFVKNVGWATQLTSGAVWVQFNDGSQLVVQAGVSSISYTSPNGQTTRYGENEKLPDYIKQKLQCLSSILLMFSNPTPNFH

CDK1/CyclinB (h), sequence (P06493 whole entry): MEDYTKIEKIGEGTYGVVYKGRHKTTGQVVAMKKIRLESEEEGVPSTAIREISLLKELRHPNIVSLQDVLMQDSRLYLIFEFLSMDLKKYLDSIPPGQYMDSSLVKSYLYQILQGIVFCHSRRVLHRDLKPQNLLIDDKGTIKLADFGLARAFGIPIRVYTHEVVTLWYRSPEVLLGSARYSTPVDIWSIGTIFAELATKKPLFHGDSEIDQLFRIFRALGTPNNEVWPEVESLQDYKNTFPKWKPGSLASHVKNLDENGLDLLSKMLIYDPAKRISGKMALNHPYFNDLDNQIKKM
CDK1/CyclinB (h), sequence (P14635 whole entry partner): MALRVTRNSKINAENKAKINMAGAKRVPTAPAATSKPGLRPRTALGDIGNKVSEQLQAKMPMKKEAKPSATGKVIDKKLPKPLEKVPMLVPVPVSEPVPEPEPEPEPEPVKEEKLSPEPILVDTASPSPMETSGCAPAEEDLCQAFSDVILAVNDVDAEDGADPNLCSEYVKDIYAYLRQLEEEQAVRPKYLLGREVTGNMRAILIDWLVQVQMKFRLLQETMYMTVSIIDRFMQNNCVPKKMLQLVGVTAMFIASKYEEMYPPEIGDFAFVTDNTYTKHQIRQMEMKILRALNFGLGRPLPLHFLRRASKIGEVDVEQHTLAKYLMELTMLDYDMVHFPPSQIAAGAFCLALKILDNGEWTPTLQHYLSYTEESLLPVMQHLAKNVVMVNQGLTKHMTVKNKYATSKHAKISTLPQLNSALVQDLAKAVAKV
CDK4/CyclinD1 (h), sequence (P11802 whole entry): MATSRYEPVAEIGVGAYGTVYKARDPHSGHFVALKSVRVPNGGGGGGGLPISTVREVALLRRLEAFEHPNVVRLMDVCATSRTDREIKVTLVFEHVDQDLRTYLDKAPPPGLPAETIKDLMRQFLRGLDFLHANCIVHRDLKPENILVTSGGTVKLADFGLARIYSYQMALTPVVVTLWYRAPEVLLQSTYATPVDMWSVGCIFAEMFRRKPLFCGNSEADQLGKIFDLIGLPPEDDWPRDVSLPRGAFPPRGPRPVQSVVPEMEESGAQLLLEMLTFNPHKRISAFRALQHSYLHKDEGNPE
CDK4/CyclinD1 (h), sequence (P24385 whole entry partner): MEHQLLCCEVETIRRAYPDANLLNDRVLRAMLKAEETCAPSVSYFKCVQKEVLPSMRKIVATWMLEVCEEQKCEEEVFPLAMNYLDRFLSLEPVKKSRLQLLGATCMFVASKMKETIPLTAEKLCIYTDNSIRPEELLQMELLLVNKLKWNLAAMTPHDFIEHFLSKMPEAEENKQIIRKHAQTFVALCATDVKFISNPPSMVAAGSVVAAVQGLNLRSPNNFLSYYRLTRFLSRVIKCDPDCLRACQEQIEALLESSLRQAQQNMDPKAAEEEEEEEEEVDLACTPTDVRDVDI
PLK3 (h), sequence (Q9H4B4 whole entry): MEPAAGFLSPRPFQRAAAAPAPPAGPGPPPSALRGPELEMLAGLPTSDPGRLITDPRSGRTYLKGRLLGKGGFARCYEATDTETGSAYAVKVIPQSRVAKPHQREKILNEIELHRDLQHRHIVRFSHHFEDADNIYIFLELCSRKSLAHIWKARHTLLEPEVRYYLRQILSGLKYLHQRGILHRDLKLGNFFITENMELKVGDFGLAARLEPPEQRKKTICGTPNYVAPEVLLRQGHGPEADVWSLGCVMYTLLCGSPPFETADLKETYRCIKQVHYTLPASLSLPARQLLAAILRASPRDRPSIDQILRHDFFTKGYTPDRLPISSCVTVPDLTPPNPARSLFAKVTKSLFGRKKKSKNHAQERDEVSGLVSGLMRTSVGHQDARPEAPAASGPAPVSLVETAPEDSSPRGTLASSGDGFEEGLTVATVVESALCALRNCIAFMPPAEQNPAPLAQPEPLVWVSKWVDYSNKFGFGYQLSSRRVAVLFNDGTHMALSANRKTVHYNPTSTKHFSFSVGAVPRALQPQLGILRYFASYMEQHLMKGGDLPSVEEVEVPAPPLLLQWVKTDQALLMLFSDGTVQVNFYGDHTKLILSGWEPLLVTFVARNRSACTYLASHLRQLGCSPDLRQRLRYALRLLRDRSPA
PLK1 T210D (h), sequence (P53350 whole entry T210D): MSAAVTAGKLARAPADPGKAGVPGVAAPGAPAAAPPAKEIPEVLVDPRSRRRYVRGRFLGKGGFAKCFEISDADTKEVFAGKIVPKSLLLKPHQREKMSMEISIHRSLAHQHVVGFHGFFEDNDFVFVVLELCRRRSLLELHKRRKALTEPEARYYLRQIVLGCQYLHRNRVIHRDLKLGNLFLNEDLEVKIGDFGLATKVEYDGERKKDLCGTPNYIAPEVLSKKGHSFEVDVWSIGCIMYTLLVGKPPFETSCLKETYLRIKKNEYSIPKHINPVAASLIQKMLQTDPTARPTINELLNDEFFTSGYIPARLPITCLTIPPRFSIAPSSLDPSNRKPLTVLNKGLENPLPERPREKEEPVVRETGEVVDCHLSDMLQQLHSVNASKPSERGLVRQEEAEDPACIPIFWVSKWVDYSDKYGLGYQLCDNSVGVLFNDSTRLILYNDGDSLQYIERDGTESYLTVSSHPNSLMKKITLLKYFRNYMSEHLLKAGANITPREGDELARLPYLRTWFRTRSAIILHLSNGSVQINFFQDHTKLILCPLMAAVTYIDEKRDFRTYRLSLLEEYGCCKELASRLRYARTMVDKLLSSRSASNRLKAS
AuroraB (h), sequence (Q96GD4 whole entry): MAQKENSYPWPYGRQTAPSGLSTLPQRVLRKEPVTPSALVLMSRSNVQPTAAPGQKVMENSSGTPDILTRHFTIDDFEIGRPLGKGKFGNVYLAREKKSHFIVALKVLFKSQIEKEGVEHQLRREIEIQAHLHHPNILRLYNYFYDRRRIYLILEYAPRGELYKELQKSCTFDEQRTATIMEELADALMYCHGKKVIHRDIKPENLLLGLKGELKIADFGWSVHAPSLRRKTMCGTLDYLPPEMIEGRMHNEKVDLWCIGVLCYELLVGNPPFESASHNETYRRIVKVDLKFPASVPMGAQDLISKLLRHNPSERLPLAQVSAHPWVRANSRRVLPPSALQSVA
GSK3β (h), sequence (P49841 whole entry): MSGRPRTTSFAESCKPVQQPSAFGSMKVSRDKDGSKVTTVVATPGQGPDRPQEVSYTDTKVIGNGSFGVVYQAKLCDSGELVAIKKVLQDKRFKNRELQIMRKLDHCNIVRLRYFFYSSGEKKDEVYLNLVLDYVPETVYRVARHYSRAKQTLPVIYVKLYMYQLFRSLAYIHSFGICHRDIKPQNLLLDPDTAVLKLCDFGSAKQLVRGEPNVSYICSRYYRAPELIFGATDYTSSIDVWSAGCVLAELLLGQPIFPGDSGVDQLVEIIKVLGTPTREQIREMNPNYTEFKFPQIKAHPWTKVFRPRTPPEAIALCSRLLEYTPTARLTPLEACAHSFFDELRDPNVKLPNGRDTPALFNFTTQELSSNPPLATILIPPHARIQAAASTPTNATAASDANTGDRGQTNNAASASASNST
PLK2 (h), sequence (Q9NYY3 whole entry): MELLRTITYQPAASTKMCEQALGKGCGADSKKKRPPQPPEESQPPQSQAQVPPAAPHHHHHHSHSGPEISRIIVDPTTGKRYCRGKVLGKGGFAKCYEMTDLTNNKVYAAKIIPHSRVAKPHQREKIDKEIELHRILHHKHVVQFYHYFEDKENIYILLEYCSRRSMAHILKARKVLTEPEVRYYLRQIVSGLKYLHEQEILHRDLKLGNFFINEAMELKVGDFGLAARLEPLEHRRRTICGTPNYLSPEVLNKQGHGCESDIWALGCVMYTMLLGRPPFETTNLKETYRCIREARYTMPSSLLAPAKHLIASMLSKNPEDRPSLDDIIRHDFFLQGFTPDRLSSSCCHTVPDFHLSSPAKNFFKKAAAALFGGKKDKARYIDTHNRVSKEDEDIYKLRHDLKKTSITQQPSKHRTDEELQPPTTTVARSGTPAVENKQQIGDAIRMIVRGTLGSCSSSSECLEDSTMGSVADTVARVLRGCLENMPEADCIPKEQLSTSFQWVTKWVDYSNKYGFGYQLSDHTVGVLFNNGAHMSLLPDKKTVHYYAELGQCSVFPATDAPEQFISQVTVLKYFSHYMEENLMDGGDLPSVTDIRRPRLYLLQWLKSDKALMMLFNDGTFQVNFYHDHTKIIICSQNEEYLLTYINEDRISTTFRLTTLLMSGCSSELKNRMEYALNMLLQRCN

With `CN1CCN(Cc2cc3cc(c2)Nc2nccc(n2)-c2cccc(c2)CNC(=O)[C@@H]2CCCN2C3)CC1` [Compound 28], the IC50 at AuroraB (h) was > 10 µM; at GSK3β (h), 0.112 µM; on CDK1/CyclinB (h) it was 0.603 µM; on CDK4/CyclinD1 (h) it was 1.66 µM; at PLK1 T210D (h) it was > 10 µM; on PLK2 (h), > 10 µM. The IC50 on PLK3 (h) was > 10 µM; in the assay with HCT-116, 0.363 µM; in the assay with H1299, 2.24 µM; in the assay with U87-MG it was 0.158 µM; with A2780, 0.55 µM; in the assay on MDA-MB-231 it was 1.62 µM.

For the molecule `COc1cc2cc(c1)Nc1nccc(n1)-c1ccc(cc1)CN(C)CCCNC(=O)CN1CCN(CC1)C2` [Compound 133], the IC50 was 1.51 µM on PLK4 (h); > 10 µM at AuroraB (h); > 10 µM at CDK1/CyclinB (h); > 10 µM on CDK4/CyclinD1 (h); > 10 µM on PLK1 T210D (h); > 3.02 µM at PLK2 (h). The IC50 is > 10 µM at PLK3 (h); 1.95 µM in the assay with HCT-116; > 10 µM with H1299; 8.91 µM in the assay with U87-MG; > 10 µM with A2780; > 10 µM in the assay on MDA-MB-231.

Turning to `O=C1NCCNCc2ccc(cc2)-c2ccnc(n2)Nc2ccc(N3CCOCC3)c(c2)CN2CCC1CC2` [Compound 71], the IC50 on PLK4 (h) is 1.7 µM; at AuroraB (h), > 10 µM; at GSK3β (h), > 10 µM; at CDK1/CyclinB (h), 9.77 µM; on CDK4/CyclinD1 (h), > 10 µM; on PLK1 T210D (h) it was > 10 µM. In addition, the IC50 at PLK2 (h) was > 10 µM; on PLK3 (h) it was > 10 µM; with HCT-116, 5.13 µM; in the assay on H1299, > 10 µM; with MDA-MB-231, 6.76 µM.

Turning to `O=C1NCc2cccc(c2)-c2ccnc(n2)Nc2cccc(c2)CN2CCC[C@@H]12` [Compound 53], the IC50 is > 10 µM at PLK4 (h); > 10 µM on AuroraB (h); 0.126 µM on GSK3β (h); > 10 µM at CDK4/CyclinD1 (h); > 10 µM on PLK1 T210D (h); > 10 µM at PLK2 (h). The IC50 at PLK3 (h) was > 10 µM; in the assay with HCT-116 it was 8.71 µM; in the assay on H1299 it was > 10 µM; with U87-MG, 6.61 µM; in the assay on A2780, > 10 µM; in the assay with MDA-MB-231, > 10 µM.

Regarding `COc1ccc2cc1CNCCCNC(=O)C1CCN(CC1)Cc1cc(ccc1N1CCOCC1)Nc1nccc-2n1` [Compound 3], the IC50 is 0.0871 µM at PLK4 (h); 1.55 µM at AuroraB (h); > 10 µM on GSK3β (h); > 10 µM at CDK1/CyclinB (h); > 10 µM at CDK4/CyclinD1 (h); > 10 µM on PLK1 T210D (h). Further, the IC50 on PLK2 (h), on PLK3 (h), in the assay on HCT-116, in the assay on H1299 and in the assay on MDA-MB-231 was > 10 µM throughout.

`COc1ccc2cc1CNCCCNC(=O)CN1CCN(CC1)Cc1cc(ccc1N1CCOCC1)Nc1nccc-2n1` [Compound 13]: the IC50 at PLK4 (h) is 0.49 µM; at AuroraB (h) it was 4.17 µM; at GSK3β (h), > 10 µM; on CDK1/CyclinB (h), > 10 µM; on CDK4/CyclinD1 (h), > 10 µM; at PLK1 T210D (h) it was > 10 µM. Further, the IC50 on PLK2 (h), at PLK3 (h), in the assay on HCT-116, in the assay with H1299 and with MDA-MB-231 was > 10 µM throughout.

`O=C1CN2CCN(CC2)Cc2cc(ccc2N2CCOCC2)Nc2nccc(n2)-c2ccc(cc2)CNCCN1` [Compound 125]: the IC50 on PLK4 (h) was 0.692 µM; on AuroraB (h), > 10 µM; at GSK3β (h), > 10 µM; at CDK1/CyclinB (h) it was > 10 µM; at CDK4/CyclinD1 (h), > 10 µM; at PLK1 T210D (h), > 10 µM. The IC50 on PLK2 (h), at PLK3 (h), in the assay with HCT-116, with H1299 and in the assay with MDA-MB-231 was > 10 µM each time.
